Entries after “also recorded” stand apart in the source; their conditions may differ. Structures can show the parent of a compound that is named as a salt.

A short description of series [1]: Comparative cardiovascular effects (heart rate, mean arterial pressure, coronary blood flow) after intravenous dosing in anesthetized dogs. The series is classed as in vivo. The conditions noted are these: for effect on heart rate (in words): M2 at 1600 μg/kg, diltiazem at 400 μg/kg; for reduction in heart rate: M2 at a dosage 4 times greater than diltiazem.
A short description of series [2]: Elimination and metabolism. The series is classed as in vivo.
The next series in a line: Liposolubility. The format is physicochemical.
Another series can be described thus: Side effects. Particulars: compositions. The format is in vivo.
The conditions of series [3]: dogs; test of dose required to cause a 50% increase in blood flow; cited from earlier work.
Where [4] appears, read: anesthetized dogs, 50 μg/kg intravenous, value at 0 μg/kg: D 59, M2 49.
[5] abbreviates: anesthetized dogs, 50 μg/kg intravenous, value at 0 μg/kg: D 99, M2 99.
Setting [6] is: anesthetized dogs, 200 μg/kg intravenous, value at 0 μg/kg: D 59, M2 49.
[7] abbreviates: anesthetized dogs, 200 μg/kg intravenous, value at 0 μg/kg: D 99, M2 99.
The mark [8] stands for this setting: anesthetized dogs, 200 μg/kg intravenous, value at 0 μg/kg: D 130, M2 127.

Take `COc1ccc([C@@H]2Sc3ccccc3N(CCN(C)C)C(=O)[C@@H]2OC(C)=O)cc1` [Diltiazem, (+)-cis-3-(acetyloxy)-5-[2-dimethylamino-ethyl]-2,3-dihydro-2-(4-methoxyphenyl)-l,5-benzothiaz epin-4(5H)one monohydrochloride, reference compound]: the Coronary blood flow in series [1] (anesthetized dogs, 15 μg/kg intravenous, value at 0 μg/kg: D 59) came out at 67 mL/min; in series [1] (setting [4]) it was 73 mL/min; in series [1] (setting [6]), 91 mL/min; in series [1] (anesthetized dogs, 400 μg/kg intravenous, value at 0 μg/kg: D 59) it was 83 mL/min. Further, the Mean arterial pressure in series [1] (anesthetized dogs, 15 μg/kg intravenous, value at 0 μg/kg: D 99) turned out to be 94 mm Hg; in series [1] (setting [5]), 84 mm Hg; in series [1] (setting [7]), 67 mm Hg; in series [1] (anesthetized dogs, 400 μg/kg intravenous, value at 0 μg/kg: D 99), 58 mm Hg. This compound displayed a Heart rate in series [1] (setting [8]) of 122 beats/minute. For the same compound, the “Maximal reduction in mean arterial pressure” value in series [1] (anesthetized dogs, intravenous) is recorded as -38%. In addition, in series [1] (anesthetized dogs, intravenous), the “increase in coronary blood flow” value is > 50%. In addition, the “effect on heart rate (in words)” value in series [1] (anesthetized dogs, intravenous) was “significant effect on the heart rate”. In addition, the “reduction in heart rate” value in series [1] (anesthetized dogs, intravenous) is > 20%.
On to `CNCCN1C(=O)C(O)C(c2ccc(OC)cc2)Sc2ccccc21` (stereo not drawn) [M2, N-desmethyl, deacetyl diltiazem], for which, in series [2] (compared with diltiazem), the “elimination half life compared with diltiazem” value is on record as “shorter elimination half life”. Also, the “metabolism by the liver” value in series [2] (in vivo) is given as “not metabolized extensively by the liver”. For the same compound, the “liposolubility compared with diltiazem” value in the series “Liposolubility” was “lower liposolubility than diltiazem”. In “Side effects”, the “side effects compared with diltiazem” value is on record as “less side effects than diltiazem”. Moreover, the Coronary blood flow in series [1] (setting [4]) is 53 mL/min; in series [1] (setting [6]), 55 mL/min; in series [1] (anesthetized dogs, 800 μg/kg intravenous, value at 0 μg/kg: M2 49), 61 mL/min; in series [1] (anesthetized dogs, 1600 μg/kg intravenous, value at 0 μg/kg: M2 49) it was 61 mL/min. The Mean arterial pressure in series [1] (setting [5]) is listed as 96 mm Hg; in series [1] (setting [7]), 88 mm Hg; in series [1] (anesthetized dogs, 800 μg/kg intravenous, value at 0 μg/kg: M2 99), 74 mm Hg; in series [1] (anesthetized dogs, 1600 μg/kg intravenous, value at 0 μg/kg: M2 99), 63 mm Hg. For the same compound, the Heart rate in series [1] (anesthetized dogs, 50 μg/kg intravenous, value at 0 μg/kg: D 130, M2 127) turned out to be 127 beats/minute; in series [1] (setting [8]), 127 beats/minute; in series [1] (anesthetized dogs, 800 μg/kg intravenous, value at 0 μg/kg: M2 127) it was 125 beats/minute; in series [1] (anesthetized dogs, 1600 μg/kg intravenous, value at 0 μg/kg: M2 127) it was 119 beats/minute. The “Maximal reduction in mean arterial pressure” value in series [1] (anesthetized dogs, intravenous) was -36%. In addition, the “coronary blood flow dilation relative to diltiazem” value in series [1] (anesthetized dogs, intravenous) is recorded as “about half that effect; also recorded: about half that of diltiazem”. Further, in series [1] (anesthetized dogs, intravenous), the “increase in coronary blood flow” value is on record as > 25%. Besides, in series [1] (anesthetized dogs, intravenous), the “peripheral dilation capacity relative to diltiazem” value is “equivalent peripheral dilation capacity”. Further, the “effect on heart rate (in words)” value in series [1] (anesthetized dogs, intravenous) was “devoted of major effect upon heart rate”; in series [1] (anesthetized dogs, intravenous, deacetyl diltiazem), “only a slight effect on the heart rate”. In addition, the “reduction in heart rate” value in series [1] (anesthetized dogs, intravenous) is < 10%. In addition, the “serious cardiovascular adverse effects” value in series [1] (anesthetized dogs, maximal dosage 4 times greater than diltiazem) is given as “without serious cardiovascular adverse effects”. Further, the “effect on mean arterial pressure (in words)” value in series [1] (anesthetized dogs, various intravenous dosages) was “decreases the mean arterial pressure”. In series [1] (compared with diltiazem), the “decrease in heart rate compared with diltiazem” value is reported as “decrease the heart rate to a lesser degree than diltiazem”. Further, the “intravenous dosages suitable for use as a coronary dilator” value in series [1] (intravenous) lay in the range of 50 to 1600 µg/kg. Moreover, the “intravenous dosages useful to decrease blood pressure or mean arterial pressure” value in series [1] (intravenous) fell in the range of 200 to 1600 µg/kg. The “effect on coronary blood flow relative to diltiazem” value in series [3] is on record as 20%.

Values taken from patent US4950663A, “Antihypertensive composition” (priority 1989, dated 1990).
